Active and inactive are the calls of the source. No cut-off for these calls is given here.
How the values were obtained:
[1] = Inhibition of HIV2 RNase H by FRET assay; parameters: species or system Human immunodeficiency virus 2
[2] = Inhibition of human RNase H by FRET assay
Escherichia coli = experiment: Inhibition of Escherichia coli RNase H at 10 uM by FRET assay
[3] = Inhibition of HIV1 RNase H by FRET assay; parameters: species or system Human immunodeficiency virus 1

**Q.** What does the source list for `O=C(OC[C@H](OC(=O)c1cc(O)c(O)c(O)c1)C(O)(COC(=O)c1cc(O)c(O)c(O)c1)COC(=O)c1cc(O)c(O)c(O)c1)c1cc(O)c(O)c(O)c1`?
**A.** IC50 [1]: 130 nM; IC50 [2]: 1500 nM; Activity (Escherichia coli): inactive; IC50 [3]: 240 nM

Reference: ChEMBL document CHEMBL1141326, “An HIV RNase H inhibitory 1,3,4,5-tetragalloylapiitol from the African plant Hylodendron gabunensis” (J Nat Prod, 2007)
